Measured values from patent US7767665B2, “1,3-benzothiazinone derivatives and use thereof” (Takeda Pharmaceutical Company Limited, priority 2001, dated 2010).
Where a name gives a salt, the structure may show the parent alone.

| SMILES | melting point |
| --- | --- |
| NCCc1cccc(-c2nc(=O)c3ccccc3s2)n1 (as salt: trifluoroacetic acid salt) [Example 220, 2-[6-(2-Aminoethyl)-2-pyridyl]-4H-1,3-benzothiazine-4-one trifluoroacetic acid salt] | 206.2 to 207.1 °C |
| O=c1nc(-c2cccc(SCCc3ccccc3)n2)sc2ccccc12 [Example 131, 2-[6-(2-Phenethylthio)-2-pyridyl]-4H-1,3-benzothiazine-4-one] | 167.1 to 168.4 °C |
| O=c1nc(-c2cccc(Oc3ccccc3)n2)sc2ccccc12 [Example 41, 2-(6-Phenoxy-2-pyridyl)-4H-1,3-benzothiazine-4-one] | 160.8 to 161.3 °C |
| Cc1ccc(Sc2ccc(-c3nc(=O)c4ccccc4s3)cn2)cc1 [Example 90, 2-[2-(4-Methyl)phenylthio-3-pyridyl]-4H-1,3-benzothiazine-4-one] | 172.6 to 172.8 °C |
| O=c1nc(-c2cccc(CN3CCOCC3)n2)sc2ccccc12 [Example 170, 2-[6-(4-Morpholinomethyl)-2-pyridyl]-4H-1,3-benzothiazine-4-one] | 191.8 °C (dec.) |
| CC[S+]([O-])c1cccc(-c2nc(=O)c3ccccc3s2)n1 (stereo not shown) [Example 149, 2-[6-(Ethylsulfinyl)-2-pyridyl]-4H-1,3-benzothiazine-4-one] | 181.5 to 182.1 °C |
| Cc1ccc2sc(-c3ccccn3)nc(=O)c2c1 [Example 13, 6-Methyl-2-(2-pyridyl)-4H-1,3-benzothiazine-4-one] | 219.8 to 220.8 °C |
| Cl.NCCc1ccnc(-c2nc(=O)c3ccccc3s2)c1 | 238 °C (dec.) |
| CCCNc1ccc(-c2nc(=O)c3ccccc3s2)cn1 [Example 31, 2-[6-(Propylamino)-3-pyridyl]-4H-1,3-benzothiazine-4-one] | 210.1 to 210.6 °C |
| CC(C)(C)OC(=O)CCc1cccc(-c2nc(=O)c3ccccc3s2)n1 [Example 78, tert-Butyl 3-[6-(4-oxo-4H-1,3-benzothiazin-2-yl)-2-pyridyl]propanoate] | 165.8 to 166 °C |
| CC(C)(C)OC(=O)NCCc1ccnc(-c2nc(=O)c3ccccc3s2)c1 [Example 218, tert-Butyl 2-[2-(4-oxo-4H-1,3-benzothiazin-2-yl)-4-pyridyl]ethylcarbamate] | 159.8 to 161 °C |
| CCCCCSc1cccc(-c2nc(=O)c3ccccc3s2)n1 [Example 129, 2-[6-(Pentylthio)-2-pyridyl]-4H-1,3-benzothiazine-4-one] | 105 to 105.1 °C |
| CSc1ccc(Oc2ccc(-c3nc(=O)c4ccccc4s3)cn2)cc1 [Example 89] | 140.5 to 140.6 °C |
| O=C(O)/C=C/c1cccc(-c2nc(=O)c3ccccc3s2)n1 [Example 148, (E)-3-[6-(4-oxo-4H-1,3-benzothiazin-2-yl)-2-pyridyl]-2-prop enoic acid] | 115.6 to 115.7 °C |
| CCOP(=O)(CCc1cccc(-c2nc(=O)c3ccccc3s2)n1)OCC | 148.8 to 149.8 °C |
| O=c1nc(-c2ccc(N3CCCC3)nc2)sc2ccccc12 [Example 33, 2-[6-(1-Pyrrolidinyl)-3-pyridyl]-4H-1,3-benzothiazine-4-one] | 221 to 223.1 °C |
| CCCCCCNc1cc(-c2nc(=O)c3ccccc3s2)ccn1 [Example 72, 2-[2-(Hexylamino)-4-pyridyl]-4H-1,3-benzothiazine-4-one] | 133.8 to 134.6 °C |
| CC(C)COc1ccc2sc(-c3ccccn3)nc(=O)c2c1 [Example 117, 6-Isobutoxy-2-(2-pyridyl)-4H-1,3-benzothiazine-4-one] | 135.5 to 136.5 °C |
| O=c1nc(-c2cccc(CN3CCC(O)(c4ccc(Cl)cc4)CC3)n2)sc2ccccc12 | 151 to 153 °C |
| COc1ccc2c(=O)nc(-c3cccc(CCC(=O)OC(C)(C)C)n3)sc2c1 [Example 173, tert-Butyl 3-[6-(7-methoxy-4-oxo-4H-1,3-benzothiazin-2-yl)-2-pyridyl]propanoate] | 134.5 to 135.4 °C |
| CC(C)(C)OC(=O)CCCCCOc1ccc2sc(-c3ccccn3)nc(=O)c2c1 [Example 124, tert-Butyl 6-[[4-oxo-2-(2-pyridyl)-4H-1,3-benzothiazin-6-yl]oxy]hexanoate] | 101.2 to 102.4 °C |
| O=C(O)c1ccc2c(=O)nc(-c3ccccn3)sc2c1 [Example 135, 4-Oxo-2-(2-pyridyl)-4H-1,3-benzothiazine-7-carboxylic acid] | 294.7 to 295.1 °C |
| O=c1nc(-c2ccccn2)sc2ccc(Br)cc12 [Example 11, 6-Bromo-2-(2-pyridyl)-4H-1,3-benzothiazine-4-one] | 253 to 253.7 °C |
| CS(=O)(=O)Cc1cccc(-c2nc(=O)c3ccccc3s2)n1 [Example 169, 2-(6-Methylsulfonylmethyl-2-pyridyl)-4H-1,3-benzothiazine-4-one] | 230.5 to 231.5 °C |
| CC(=O)N(C)c1cccc(-c2nc(=O)c3ccccc3s2)n1 [Example 110, N-Methyl-N-[6-(4-oxo-4H-1,3-benzothiazin-2-yl)-2-pyridyl]acetamide] | 218.3 to 220.3 °C |
| O=c1nc(-c2cccc(CNS(=O)(=O)c3ccccc3)n2)sc2ccccc12 [Example 213, N-[[6-(4-Oxo-4H-1,3-benzothiazin-2-yl)-2-pyridyl]methyl]benzenesulfonamide] | 206.7 to 207.5 °C |
| O=c1nc(-c2ccc(N3CCOCC3)nc2)sc2ccccc12 [Example 35, 2-[6-(4-Morpholino)-3-pyridyl]-4H-1,3-benzothiazine-4-one] | 232.6 to 234.4 °C |
| O=c1nc(-c2ccc3ccccc3n2)sc2ccccc12 [Example 3, 2-(2-Quinolinyl)-4H-1,3-benzothiazine-4-one] | 262.7 to 263.4 °C |

The next lines start with the values.

| melting point | SMILES |
| --- | --- |
| 187 to 189 °C | O=c1nc(-c2cccc(C[S+]([O-])Cc3ccccc3)n2)sc2ccccc12 (stereo not shown) [Example 256, 2-[6-[(Benzylsulfinyl)methyl]-2-pyridyl]-4H-1,3-benzothiazine-4-one] |
| 235.3 to 237.2 °C | O=c1nc(-c2cccc(CCP(=O)(O)O)n2)sc2ccccc12 [Example 246] |
| 171.9 to 172.3 °C | Cn1ccnc1Sc1cccc(-c2nc(=O)c3ccccc3s2)n1 [Example 271, 2-{6-[(1-Methyl-1H-imidazol-2-yl)thio]-2-pyridyl}-4H-1,3-benzothiazine-4-one] |
| 245.2 to 245.8 °C | O=c1nc(-c2cccc(Sc3ncccn3)n2)sc2ccccc12 [Example 270, 2-[6-(2-Pyrimidinylthio)-2-pyridyl]-4H-1,3-benzothiazine-4-one] |
| 135.8 to 136.7 °C | CC(C)(C)OC(=O)CCc1ccnc(-c2nc(=O)c3ccccc3s2)c1 [Example 309, tert-butyl 3-[2-(4-oxo-4H-1,3-benzothiazin-2-yl)-4-pyridyl]propionate] |
| 223 °C (dec.) | CC(C)(C)OC(=O)CCc1cc(-c2nc(=O)c3ccccc3s2)nc(S(C)(=O)=O)c1 [Example 345, tert-Butyl 3-[2-(methylsulfonyl)-6-(4-oxo-4H-1,3-benzothiazin-2-yl)-4-pyridyl]propanoate] |
| 271 to 272.7 °C | N#Cc1cc(CCC(=O)O)cc(-c2nc(=O)c3ccccc3s2)n1 [Example 356, 3-[2-Cyano-6-(4-oxo-4H-1,3-benzothiazin-2-yl)-4-pyridyl]propanoate] |
| 223.5 to 224 °C | CSc1nccc(-c2nc(=O)c3ccccc3s2)n1 [Example 284, 2-[2-(Methylthio)-6-pyrimidinyl]-4H-1,3-benzothiazine-4-one] |
| 192.3 to 194 °C | CC(C)(C)OC(=O)CN1CCN(c2ccnc(-c3nc(=O)c4ccccc4s3)c2)C1=O [Example 323, tert-Butyl [2-oxo-3-[2-(4-oxo-4H-1,3-benzothiazin-2-yl)-4-pyridyl]-1-imidazolidinyl]acetate] |
| 193.5 to 194.2 °C | CCCCNC(=O)c1ccc2c(=O)nc(-c3ccccn3)sc2c1 [Example 237, N-Butyl-4-oxo-2-(2-pyridyl)-4H-1,3-benzothiazine-7-carboxamide] |
| 161.9 to 162.3 °C | O=C(O)CCCCc1cccc(-c2nc(=O)c3ccccc3s2)n1 [Example 304, 5-[6-(4-Oxo-4H-1,3-benzothiazin-2-yl)-2-pyridyl]valeric acid] |
| 250 °C (dec.) | O=c1nc(-c2cc(CCc3nnn[nH]3)ccn2)sc2ccccc12 [Example 316, 2-{4-[2-(1H-1,2,3,4-Tetrazol-5-yl)ethyl]-2-pyridyl}-4H-1,3-benzothiazine-4-one] |
| 129.4 to 130.5 °C | Cc1cc(CCC(=O)OC(C)(C)C)cc(-c2nc(=O)c3ccccc3s2)n1 [Example 319, tert-Butyl 3-[2-methyl-6-(4-oxo-4H-1,3-benzothiazin-2-yl)-4-pyridyl]propanoate] |
| 246 to 248 °C | O=c1nc(-c2cccc(CS(=O)(=O)Cc3ccccc3)n2)sc2ccccc12 [Example 257, 2-[6-[(Benzylsulfonyl)methyl]-2-pyridyl]-4H-1,3-benzothiazine-4-one] |
| 171 to 173 °C | CCC[S+]([O-])Cc1cccc(-c2nc(=O)c3ccccc3s2)n1 (stereo not shown) [Example 253] |
| 245.2 to 245.8 °C | O=c1nc(-c2cccc(Sc3ccncc3)n2)sc2ccccc12 [Example 274, 2-[6-(4-Pyridylthio)-2-pyridyl]-4H-1,3-benzothiazine-4-one] |
| 280.4 to 281.1 °C | O=C1c2ccccc2C(=O)N1Cc1cccc(-c2nc(=O)c3ccccc3s2)n1 [Example 236, 2-[[6-(4-Oxo-4H-1,3-benzothiazin-2-yl)-2-pyridyl]methyl]-1H-isoindole-1,3(2H)-dione] |
| 250.5 to 252 °C | C[S+]([O-])c1nccc(-c2nc(=O)c3ccccc3s2)n1 (stereo not shown) [Example 285, 2-[2-(Methylsulfinyl)-6-pyrimidinyl]-4H-1,3-benzothiazine-4-one] |
| 254 °C (dec.) | O=c1nc(-c2cccc(CP(=O)(O)O)n2)sc2ccccc12 [Example 244] |
| 237 to 239.7 °C | NC(=O)CCc1ccnc(-c2nc(=O)c3ccccc3s2)c1 [Example 331, 3-[6-(4-Oxo-4H-1,3-benzothiazin-2-yl)-4-pyridyl]propanamide] |
| 215 °C (dec.) | CN(CC(=O)O)c1nccc(-c2nc(=O)c3ccccc3s2)n1 [Example 294, {Methyl [6-(4-oxo-4H-1,3-benzothiazin-2-yl)-2-pyrimidinyl]amino}acetic acid] |
